# How the values were obtained:
# [1] = system: HR NMIBC (CIS with or without papillary disease) unresponsive to prior intravesical BCG therapy; parameters: species or system human; settings: in vivo
# [2] = Pharmacokinetics of gemcitabine and dFdU in urine and plasma after TAR-200; settings: for Mean cumulative excreted amount in urine as percentage of the administered dose: 0-168 hours after TAR-200; for Tmax: human, urine, other: intravesical, 225 mg gemcitabine
SMILES,"12-month CR rate, all TAR-200 treated patients [1] [%]",Responders who achieved CR at the 12 weeks disease assessment [1],effectiveness versus existing standard of care [1],Mean cumulative excreted amount in urine as percentage of the administered dose [2],Mean gemcitabine concentration in urine versus tumoricidal concentration ([2]; after TAR-200 (225 mg gemcitabine)) [µg/mL],Tmax [2] [h]
Nc1ccn([C@@H]2O[C@H](CO)[C@@H](O)C2(F)F)c(=O)n1 [gemcitabine],64,47 out of 48,nearly two times as effective,36.2-53.8%,> 3,48 to 96
"O=c1ccn([C@@H]2O[C@H](CO)[C@@H](O)C2(F)F)c(=O)[nH]1 [dFdU, 2′,2′ difluorodeoxyuridine]",–,–,–,11.1-23.3%,–,72 to 144

# From patent US20260174788A1 (priority 2023, published 2026)
